Source: BindingDB's records for doi:10.1021/jm701270n (National Taiwan University, 2008)

Molecular target: Sodium-dependent dopamine transporter (Rattus norvegicus, UniProt P23977)
Test: Radioligand Binding Assay
Experimental: The assay was initiated by the addition of membranes to binding buffer containing test compound, blocker, and radioligand. The samples were incubated in triplicate. Brandel cell harvesters were used to filter the samples over Whatman GF/B filters, which were presoaked in wash buffer. The 125I retained on the filters was measured in a gamma counter.

Chain of Sodium-dependent dopamine transporter (P23977 whole entry): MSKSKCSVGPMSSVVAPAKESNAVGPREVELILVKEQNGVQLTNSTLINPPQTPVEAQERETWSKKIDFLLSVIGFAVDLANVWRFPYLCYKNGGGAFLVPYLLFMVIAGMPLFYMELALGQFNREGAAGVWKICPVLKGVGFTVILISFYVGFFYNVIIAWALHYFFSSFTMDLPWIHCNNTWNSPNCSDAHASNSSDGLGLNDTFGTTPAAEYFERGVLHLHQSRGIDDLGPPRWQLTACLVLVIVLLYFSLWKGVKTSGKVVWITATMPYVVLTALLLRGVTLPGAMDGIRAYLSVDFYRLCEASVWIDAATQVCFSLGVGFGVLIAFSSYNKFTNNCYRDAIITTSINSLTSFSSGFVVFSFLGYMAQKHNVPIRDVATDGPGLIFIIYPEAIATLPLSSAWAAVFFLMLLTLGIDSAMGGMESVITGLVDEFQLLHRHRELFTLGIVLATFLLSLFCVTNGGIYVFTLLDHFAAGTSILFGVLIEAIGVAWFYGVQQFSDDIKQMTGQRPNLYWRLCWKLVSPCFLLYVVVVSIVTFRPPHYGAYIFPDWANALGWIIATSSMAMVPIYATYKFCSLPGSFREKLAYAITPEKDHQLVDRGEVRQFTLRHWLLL

Row | SMILES | Ki [µM] | Ki (pH 7.4, 4 °C) [µM]
1 | CC(O)(Cc1ccccc1)CN1CCN(CCOC(c2ccccc2)c2ccccc2)CC1 (configuration not stated) [1-{4-[2-(diphenylmethoxy)ethyl]piperazin-1-yl}-2-methyl-3-phenylpropan-2-ol] | 0.15 | 
2 | FC[C@H](Cc1ccccc1)N1CCN(CCOC(c2ccc(F)cc2)c2ccc(F)cc2)CC1 [1-{2-[bis(4-fluorophenyl)methoxy]ethyl}-4-[(2S)-1-fluoro-3-phenylpropan-2-yl]piperazine] | 0.14 | 
3 | N[C@@H](Cc1ccccc1)CN1CCN(CCOC(c2ccc(F)cc2)c2ccc(F)cc2)CC1 [(2S)-1-(4-{2-[bis(4-fluorophenyl)methoxy]ethyl}piperazin-1-yl)-3-phenylpropan-2-amine] |  | 0.039
4 | O=C(Cc1ccccc1)CN1CCN(CCOC(c2ccccc2)c2ccccc2)CC1 [1-{4-[2-(diphenylmethoxy)ethyl]piperazin-1-yl}-3-phenylpropan-2-one] | 0.01 | 
5 | C=C(Cc1ccccc1)CN1CCN(CCOC(c2ccc(F)cc2)c2ccc(F)cc2)CC1 [1-(2-benzylprop-2-en-1-yl)-4-{2-[bis(4-fluorophenyl)methoxy]ethyl}piperazine] | 0.1 | 
6 | O=C(CN1CCN(CCOC(c2ccccc2)c2ccccc2)CC1)c1ccccc1 [2-{4-[2-(diphenylmethoxy)ethyl]piperazin-1-yl}-1-phenylethan-1-one] | 0.45 | 
7 | CO[C@@H](Cc1ccccc1)CN1CCN(CCOC(c2ccc(F)cc2)c2ccc(F)cc2)CC1 [1-{2-[bis(4-fluorophenyl)methoxy]ethyl}-4-[(2S)-2-methoxy-3-phenylpropyl]piperazine] |  | 0.029
8 | FC[C@@H](Cc1ccccc1)N1CCN(CCOC(c2ccc(F)cc2)c2ccc(F)cc2)CC1 [1-{2-[bis(4-fluorophenyl)methoxy]ethyl}-4-[(2R)-1-fluoro-3-phenylpropan-2-yl]piperazine] | 0.11 | 
9 | C[C@H](Cc1ccccc1)CN1CCN(CCOC(c2ccc(F)cc2)c2ccc(F)cc2)CC1 [1-[(2R)-2-benzylpropyl]-4-{2-[bis(4-fluorophenyl)methoxy]ethyl}piperazine] |  | 0.017
10 | CC(O)(CCN1CCN(CCOC(c2ccccc2)c2ccccc2)CC1)c1ccccc1 (configuration not stated) [4-{4-[2-(diphenylmethoxy)ethyl]piperazin-1-yl}-2-phenylbutan-2-ol] |  | 0.007
11 | CO[C@H](Cc1ccccc1)CN1CCN(CCOC(c2ccc(F)cc2)c2ccc(F)cc2)CC1 [1-{2-[bis(4-fluorophenyl)methoxy]ethyl}-4-[(2R)-2-methoxy-3-phenylpropyl]piperazine] |  | 0.027
12 | C=C(Cc1ccccc1)CN1CCN(CCOC(c2ccccc2)c2ccccc2)CC1 [1-(2-benzylprop-2-en-1-yl)-4-[2-(diphenylmethoxy)ethyl]piperazine] | 0.41 | 
13 | C=C(CCN1CCN(CCOC(c2ccccc2)c2ccccc2)CC1)c1ccccc1 [1-[2-(diphenylmethoxy)ethyl]-4-(3-phenylbut-3-en-1-yl)piperazine] |  | 0.03
14 | Fc1ccc(C(OCCN2CCN(C[C@@H](F)Cc3ccccc3)CC2)c2ccc(F)cc2)cc1 [1-{2-[bis(4-fluorophenyl)methoxy]ethyl}-4-[(2S)-2-fluoro-3-phenylpropyl]piperazine] |  | 0.0027
15 | CC(O)(CCN1CCN(CCOC(c2ccc(F)cc2)c2ccc(F)cc2)CC1)c1ccccc1 (configuration not stated) [4-(4-{2-[bis(4-fluorophenyl)methoxy]ethyl}piperazin-1-yl)-2-phenylbutan-2-ol] |  | 0.004
16 | Fc1ccc(C(OCCN2CCN(C[C@H](F)Cc3ccccc3)CC2)c2ccc(F)cc2)cc1 [1-{2-[bis(4-fluorophenyl)methoxy]ethyl}-4-[(2R)-2-fluoro-3-phenylpropyl]piperazine] |  | 0.022
17 | N[C@H](Cc1ccccc1)CN1CCN(CCOC(c2ccc(F)cc2)c2ccc(F)cc2)CC1 [(2R)-1-(4-{2-[bis(4-fluorophenyl)methoxy]ethyl}piperazin-1-yl)-3-phenylpropan-2-amine] |  | 0.02
18 | O=C(Cc1ccccc1)CN1CCN(CCOC(c2ccc(F)cc2)c2ccc(F)cc2)CC1 [1-(4-{2-[bis(4-fluorophenyl)methoxy]ethyl}piperazin-1-yl)-3-phenylpropan-2-one] | 0.0065 | 
19 | C=C(CCN1CCN(CCOC(c2ccc(F)cc2)c2ccc(F)cc2)CC1)c1ccccc1 [1-{2-[bis(4-fluorophenyl)methoxy]ethyl}-4-(3-phenylbut-3-en-1-yl)piperazine] |  | 0.018
20 | C[C@@H](Cc1ccccc1)CN1CCN(CCOC(c2ccc(F)cc2)c2ccc(F)cc2)CC1 [1-[(2S)-2-benzylpropyl]-4-{2-[bis(4-fluorophenyl)methoxy]ethyl}piperazine] |  | 0.017
21 | CC(O)(Cc1ccccc1)CN1CCN(CCOC(c2ccc(F)cc2)c2ccc(F)cc2)CC1 (configuration not stated) [1-(4-{2-[bis(4-fluorophenyl)methoxy]ethyl}piperazin-1-yl)-2-methyl-3-phenylpropan-2-ol] | 0.057 | 
22 | O=C(CN1CCN(CCOC(c2ccc(F)cc2)c2ccc(F)cc2)CC1)c1ccccc1 [2-(4-{2-[bis(4-fluorophenyl)methoxy]ethyl}piperazin-1-yl)-1-phenylethan-1-one] | 0.054 | 
